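Exposure lasted 48 hours, with cells grown in 96-well plates and compounds tested at five concentrations. At the GI50, growth is halved. Definition used: TGI = concentration required for complete inhibition of growth.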
Key:
Assay in all cases: DTP human tumour cell line panel, 48 h
SK-MEL-5 melanoma = tested on: SK-MEL-5 melanoma
SR leukemia = tested on: SR leukemia
RXF 393 renal = tested on: RXF 393 renal
OVCAR-8 ovarian = tested on: OVCAR-8 ovarian
TK-10 renal = tested on: TK-10 renal
SNB-19 CNS = tested on: SNB-19 CNS
CAKI-1 renal = tested on: CAKI-1 renal
SW-620 colon = tested on: SW-620 colon
HS 578T breast = tested on: HS 578T breast
MDA-MB-231 breast = tested on: MDA-MB-231 breast

| Structure (SMILES) | TGI (SK-MEL-5 melanoma) [µM] | TGI (SR leukemia) [µM] | TGI (RXF 393 renal) [µM] | TGI (OVCAR-8 ovarian) [µM] | TGI (TK-10 renal) [µM] | TGI (SNB-19 CNS) [µM] | TGI (CAKI-1 renal) [µM] | TGI (SW-620 colon) [µM] | GI50 (HS 578T breast) [µM] | TGI (HS 578T breast) [µM] | GI50 (SK-MEL-5 melanoma) [µM] | GI50 (MDA-MB-231 breast) [µM] | TGI (MDA-MB-231 breast) [µM] | GI50 (OVCAR-8 ovarian) [µM] | GI50 (TK-10 renal) [µM] | GI50 (SNB-19 CNS) [µM] | GI50 (CAKI-1 renal) [µM] | GI50 (SW-620 colon) [µM] | GI50 (RXF 393 renal) [µM] | GI50 (SR leukemia) [µM] |
| --- | --- | --- | --- | --- | --- | --- | --- | --- | --- | --- | --- | --- | --- | --- | --- | --- | --- | --- | --- | --- |
| Cc1ccc(-c2nnc(-c3nn(-c4ccccc4)c4nc5ccccc5nc34)o2)cc1 | 25.8 | > 100 | 20.5 | 25.7 | 31.2 | 76 | 26.9 | > 100 | – | – | – | – | – | – | – | – | – | – | – | – |
| Cc1cccc(C)c1NC(=O)/C(=N/NC(N)=S)C(C)C(=O)c1ccc(Cl)cc1 (centres undefined) | > 100 | > 100 | – | > 100 | > 100 | > 100 | > 100 | > 100 | – | – | – | – | – | – | – | – | – | – | – | – |
| CCN(CC)CC1c2ccccc2C(CNc2ccccc2)N1C (centres undefined) | > 100 | – | > 100 | > 100 | > 100 | > 100 | > 100 | > 100 | – | – | – | – | – | – | – | – | – | – | – | – |
| CC(=O)OC12C=C(C)C(C(C)C1)C1C(=O)N(CCN3CCOCC3)C(=O)C12 (centres undefined) | > 100 | – | – | > 100 | > 100 | > 100 | > 100 | > 100 | > 100 | > 100 | > 100 | > 100 | > 100 | > 100 | > 100 | > 100 | > 100 | > 100 | – | – |
| COC(=O)C1(C)CCc2c(OC)ccc(OC)c2C1=O (centres undefined) | > 100 | > 100 | > 100 | > 100 | > 100 | > 100 | – | > 100 | – | – | – | – | – | – | – | – | – | – | – | – |
| COc1cc(C(=O)C/C(CCC(=O)Nc2ccccc2[N+](=O)[O-])=N\NC(N)=O)ccc1O | > 100 | > 100 | > 100 | > 100 | > 100 | > 100 | > 100 | > 100 | – | – | – | – | – | – | – | – | – | – | – | – |
| CN=c1ccc2nc3ccc(N)cc3sc-2c1 | 1.88 | – | 23.9 | 10.3 | 32.6 | > 100 | 12.4 | 20.2 | 17 | 59.6 | 0.448 | 0.7 | 14.3 | 1.45 | 6.96 | 3.25 | 2.36 | 2.89 | 8.29 | – |
| Fc1ccc(C2SCc3nc4ccccc4n32)c(F)c1 (centres undefined) | 79.6 | > 100 | > 100 | > 100 | > 100 | > 100 | > 100 | > 100 | – | – | – | – | – | – | – | – | – | – | – | – |
| CS(=O)(=O)c1ccc(-c2cc(-c3ccc(S(C)(=O)=O)cc3)[n+](-c3cc(-c4ccc(S(C)(=O)=O)cc4)c([O-])c(-c4ccc(S(C)(=O)=O)cc4)c3)c(-c3ccc(S(C)(=O)=O)cc3)c2)cc1 | > 100 | > 100 | > 100 | > 100 | > 100 | > 100 | > 100 | > 100 | – | – | – | – | – | – | – | – | – | – | – | – |
| O=C1OC(Cc2ccccc2)(N2CCCC2=O)C1c1ccccc1 (centres undefined) | > 100 | > 100 | – | > 100 | > 100 | > 100 | > 100 | > 100 | – | – | – | – | – | – | – | – | – | – | – | – |
| CC/C=C\C/C=C\C/C=C\CCCCCCCC(=O)OCC(O)CO (centres undefined) | > 100 | > 100 | > 100 | > 100 | > 100 | > 100 | 59.8 | > 96.4 | – | – | – | – | – | – | – | – | – | – | – | – |
| O=C1CC(c2c[nH]c3ccccc23)C(=O)N1 (centres undefined) | > 100 | – | > 100 | > 100 | > 100 | – | > 100 | > 100 | – | – | – | – | – | – | – | – | – | – | – | – |
| CO/N=C(\COc1ccc2c(c1)[nH]c1ccccc12)c1ccc(F)cc1 | > 100 | – | > 100 | > 100 | > 100 | > 100 | > 100 | > 100 | 23.4 | > 100 | > 100 | 20.1 | > 100 | 10.4 | 25.9 | 30 | > 100 | > 100 | 27.6 | – |
| CO[C@H]1CC(O[C@@H]2/C(C)=C/C[C@@H]3C[C@@H](C[C@]4(C=C[C@H](C)[C@@H](C5CCCCC5)O4)O3)OC(=O)[C@@H]3C=C(C)[C@@H](O)[C@H]4OC/C(=C\C=C\[C@@H]2C)[C@]43O)O[C@@H](C)C1O[C@H]1C[C@H](OC)[C@@H](O)[C@H](C)O1 (some centres undefined) | 2.77 | 4.62 | 2.46 | 5.29 | 3.51 | 6.52 | 2.73 | – | 2.45 | > 100 | 1.41 | – | – | 2.07 | 1.84 | 2.03 | 1.22 | – | 1.18 | 1.86 |
| COc1cc2c3c(n(C)c(=O)c2cc1OC)-c1cc2c(cc1/C3=C\CCCCN1C(=O)c3ccccc3C1=O)OCO2 | 39.4 | – | > 100 | > 100 | 29.1 | > 100 | 35.4 | > 100 | 26.5 | > 100 | 13 | 13.3 | 38.3 | 17.1 | 1.11 | 36.6 | 0.686 | 7 | 56.5 | – |
| O=c1nc(NC2CCCCO2)ccn1CCO (centres undefined) | > 100 | > 100 | > 100 | > 100 | > 100 | – | > 100 | > 100 | – | – | – | – | – | – | – | – | – | – | – | – |
| NNC(=O)CS(=O)(=O)Nc1ncccn1 | > 100 | – | > 100 | > 100 | > 100 | > 100 | > 100 | > 100 | – | > 100 | – | – | > 100 | – | – | – | – | – | – | – |
| O=C1OCC2=C1C(c1ccccc1)c1cc3c(cc1N2)OCO3 (centres undefined) | 0.234 | – | – | > 48.2 | > 100 | > 100 | > 62.9 | > 100 | 0.0469 | > 84.4 | 0.0336 | 0.046 | > 74.7 | 0.0437 | 11.4 | 0.0568 | 0.439 | 0.037 | – | < 0.0115 |
| COc1ccc(-c2[nH]c3ccccc3c2-c2ccc(OC)cc2)cc1 | 15.2 | – | – | 35.8 | 41 | 20.6 | 17.1 | 36.8 | 4.41 | 43.8 | 3.65 | 4.69 | 23.5 | 10.3 | 12.6 | 5.06 | 3.67 | 4.53 | – | – |
